The target of the assay is G-protein coupled receptor 35 (Homo sapiens, UniProt Q9HC97). The assay can be described thus: Human GPR35a Isoform Binding Assay. The method, then: Overexpression of Human GPR35a Baculovirus in HEK293f cells at a cell density of 2.5 106 cells/mL and a multiplicity of infection of 2.5 over 24 h in Pro293 (Lonza)+5% FBS, 1% Glutamax and 0.4% Pen/Strep. Cells harvested and centrifuged at 2500 RPM for 10 mins at 4 C. The supernatant was then poured off and the pellet stored at +-80 C. The pellet was defrosted and re-suspended in 15 mL of homogenising buffer (20 mM HEPES, 10 mM EDTA, pH 7.4). Then homogenised in mechanical homogeniser (VMR) for 10 seconds. The membrane was centrifuged in centrifuge tubes at 40,000 g for 15 mins at 4 C. The supernatant was poured away and re-suspended in 15 mL of homogenising buffer. Homogenised for 20 seconds. The membrane was centrifuged at 40,000 g for 45 mins at 4 C. The membrane was re-suspended in 3 mL of storage buffer (20 mM HEPES, 0.1 mM EDTA, pH 7.4) mixing well. The resulting membranes were then stored at +-80 . […] 0.1 uM FAC Lodoxamide was added in order to allow non-specific binding to be calculated. […] Plates were dried prior to 50 ul/well scintillant added, sealed and radioactivity measured using a MicroBeta analyser. IC50 values were derived from the inhibition curve and affinity constant (Ki) values were calculated using the Cheng-Prussoff equation, where; pKi=+-log 10 Ki.

Structures are written as SMILES.

Chain of G-protein coupled receptor 35 (Q9HC97 whole entry, canonical isoform): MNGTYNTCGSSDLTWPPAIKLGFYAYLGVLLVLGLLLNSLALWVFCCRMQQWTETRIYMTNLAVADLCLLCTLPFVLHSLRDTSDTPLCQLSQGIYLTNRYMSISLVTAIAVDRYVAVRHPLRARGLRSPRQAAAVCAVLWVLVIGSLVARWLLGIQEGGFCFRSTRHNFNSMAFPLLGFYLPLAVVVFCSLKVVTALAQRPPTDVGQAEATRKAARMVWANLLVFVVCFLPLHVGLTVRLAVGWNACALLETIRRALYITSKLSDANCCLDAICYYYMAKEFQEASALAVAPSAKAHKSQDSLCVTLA

The compound `O=c1c(O)c(Nc2cc(-c3ccccc3)cc(-c3nn[nH]n3)c2)c1=O` [US20240254093, Example 3] had a Ki of 0.35 nM. Then `O=c1c(O)c(Nc2cccc(-c3nn[nH]n3)c2)c1=O` [US20240254093, Example 1], with 9.81 nM.
